In patent publication US20260176289A1, “SMALL MOLECULE INHIBITORS OF KRAS PROTEINS” (Merck Sharp & Dohme LLC, priority 2022, published 2026):
pIC50: −log10 of the molar value. Where two headings read alike, the source gives them in different places.

Columns and labels:
[1] = target: KRAS-G12C (C51S/C80L/C118S) (Homo sapiens, UniProt P01116, C118S/C51S/C80L/G12C); assay: SOS-catalyzed nucleotide exchange assay (Procedure A, TR-FRET), KRAS-G12C; assay type: biochemical; conditions: nucleotide exchange, Procedure A; read-out: KRAS G12C GNE IC50
Procedure, shortened: (§1)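 Signal ratio (520/495 nm, excitation 340 nm) reports Bodipy-GDP retention on biotinylated RAS after SOS-catalyzed exchange with 3 mM GTP. SOS was 40 nM, except 160 nM for G12V. Room-temperature exchange lasted 60 min (90 min for G12V), following a 60 min compound preincubation.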

MKN-1 cells = assay: Cellular phospho-ERK assay, MKN-1 cells (amplified wild-type KRAS); assay type: cell-based; conditions: Homo sapiens, read-out: MKN1 pERK IC50
Procedure, shortened: (§2)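 Cells were seeded overnight, then treated 2 h at 37° C with compound in a 10-point, 1:3 titration from 30 μM top final concentration. Lysates were assayed by AlphaLISA SureFire Ultra for p-ERK and total ERK. IC50 came from a 4-parameter logistic fit of the p-ERK/total ERK ratio.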

HRAS = HRAS (Homo sapiens, UniProt P01112); assay: SOS-catalyzed nucleotide exchange assay (Procedure A, TR-FRET), HRAS; assay type: biochemical; conditions: read-out: HRAS GNE IC50
From the text: Procedure for SOS-Catalyzed Nucleotide Exchange Assay for KRAS-WT, G12C/D/V, G13D, HRAS, and NRAS (Procedure A)
Recombinant KRAS-G12C protein used in this assay has an additional triple mutation (C51S/C80L/C118S). Whereas KRAS-WT, G12D/V, G13D, HRAS and NRAS are in context of their WT protein sequence background. Specifically, the SOS-catalyzed nucleotide exchange assay utilizes a preformed TR-FRET complex containing a specific biotinylated RAS protein (KRAS-WT, G12C/V/D, G13D, HRAS, NRAS; described above) with Bodipy-GDP, and Terbium-streptavidin. Compounds are preincubated with this complex for 60 minutes. Subsequently, recombinant human SOS protein and unlabeled GTP are added to initiate the exchange reaction. Small molecule inhibitors stabilize the Bodipy-GDP complex whereas the untreated protein rapidly exchanges Bodipy-GDP for unlabeled GTP resulting in reduced TR-FRET signal.
To assemble the preformed TR-FRET complexes, each biotinylated RAS protein is diluted to 2 μM in an EDTA Buffer (20 mM HEPES pH 7.5, 50 mM sodium chloride, 10 mM EDTA, and 0.01% Tween) and incubated at room temperature for one hour. This mixture is then further diluted to 90 nM in an Assay Buffer (20 mM HEPES pH 7.5, 150 mM sodium chloride, 10 mM magnesium chloride, and 0.005% Tween) containing 15 nM of Terbium-Streptavidin (Invitrogen, catalog #PV3577) and 900 nM of Bodipy-GDP (Invitrogen, catalog #G22360) and incubated at room temperature for six hours. It should be noted that this preformed TR-FRET complex for each of the RAS protein were made ahead of time, aliquoted and stored at −80° C. until the day of the experiment.
Each test compound (10 mM stock in DMSO) is diluted in DMSO to make a final-10-point, 3-fold dilution and is acoustically dispensed into a 384-well assay plate (Corning, catalog #3820) using an Echo 550 (Labcyte). Each well of the assay plate receives 3 μL of a specific 3×RAS preformed TR-FRET complex and 3 μL of Assay Buffer and is incubated at room temperature for 60 minutes (preincubation time). Each well then receives 3 μL of 3×recombinant human SOS protein and GTP (Sigma, G8877) in Assay Buffer and is incubated at room temperature for 30 minutes (G13D), 60 minutes (KRAS WT/G12C/D, H/NRAS) or 90 minutes for G12V. The final reaction in each well of 9 μL consists of 3 mM GTP, specific Ras and SOS proteins in the following concentrations: KRAS-G12C/SOS=3 nM/40 nM, KRAS-WT and G12D/SOS=1 nM/40 nM, KRAS-G12V/SOS=1.25 nM/160 nM. KRAS-G13D/SOS=1.25 nM/0 nM, HRAS and NRAS=1.25 nM/40 nM.
The time-resolved fluorescence resonance energy transfer (TR-FRET) signal is measured on an Envision (PerkinElmer) plate reader: Excitation filter=340 nm; emission 1=495 nm; emission2=520 nm; dichroic mirror=D400/D505; delay time=[…]. The signal of each well is determined as the ratio of the emission at 520 nm to that at 495 nm. Percent effect of each well is determined after normalization to control wells containing DMSO (no effect) or a saturating concentration of inhibitor (max effect). The apparent effect as a function of compound concentration is fit to a four-parameter logistic equation.

KRAS-G13D = KRAS-G13D (Homo sapiens, UniProt P01116, G13D); assay: SOS-catalyzed nucleotide exchange assay (Procedure A, TR-FRET), KRAS-G13D; assay type: biochemical; conditions: nucleotide exchange, Procedure A; read-out: KRAS G13D GNE IC50
KRAS-G12V = KRAS-G12V (Homo sapiens, UniProt P01116, G12V); assay: SOS-catalyzed nucleotide exchange assay (Procedure A, TR-FRET), KRAS-G12V; assay type: biochemical; conditions: nucleotide exchange, read-out: KRAS G12V GNE IC50
Procedure, shortened: as §1

KRAS-WT = KRAS-WT (Homo sapiens, UniProt P01116); assay: SOS-catalyzed nucleotide exchange assay (Procedure A, TR-FRET), KRAS-WT; assay type: biochemical; conditions: nucleotide exchange, read-out: KRAS WT GNE IC50
Procedure, shortened: as §1

SW620 cells = assay: Cellular phospho-ERK assay, SW620 cells (homozygous KRAS-G12V); assay type: cell-based; conditions: Homo sapiens, read-out: SW620 pERK IC50
Procedure, shortened: as §2

AsPC-1 cells = assay: Cellular phospho-ERK assay, AsPC-1 cells (homozygous KRAS-G12D); assay type: cell-based; conditions: Homo sapiens, ASPC1, 2 h, read-out: AsPC1 pERK IC50
Procedure, shortened: as §2

KRAS-G12D = KRAS-G12D (Homo sapiens, UniProt P01116, G12D); assay: SOS-catalyzed nucleotide exchange assay (Procedure A, TR-FRET), KRAS-G12D; assay type: biochemical; conditions: nucleotide exchange, read-out: KRAS G12D GNE IC50
Procedure, shortened: as §1

[2] = amplified wild-type KRAS, 2 hours
[3] = SW-620, 2 hours compound incubation

Chain of KRAS-G12D (P01116 with tags, fused parts or gaps isoform P01116-2 G12D): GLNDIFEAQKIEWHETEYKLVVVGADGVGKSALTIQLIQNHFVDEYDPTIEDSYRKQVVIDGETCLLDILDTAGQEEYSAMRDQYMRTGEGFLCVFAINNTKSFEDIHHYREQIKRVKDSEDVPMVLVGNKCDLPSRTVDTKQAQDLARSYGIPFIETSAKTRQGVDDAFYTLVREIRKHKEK
Chain of HRAS (P01112 with tags, fused parts or gaps): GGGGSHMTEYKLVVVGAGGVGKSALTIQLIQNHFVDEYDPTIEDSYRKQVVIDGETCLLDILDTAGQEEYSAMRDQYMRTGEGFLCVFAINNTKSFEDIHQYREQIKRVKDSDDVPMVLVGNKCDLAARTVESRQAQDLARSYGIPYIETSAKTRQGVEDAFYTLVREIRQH
Chain of KRAS-G13D (P01116 with tags, fused parts or gaps isoform P01116-2 G13D): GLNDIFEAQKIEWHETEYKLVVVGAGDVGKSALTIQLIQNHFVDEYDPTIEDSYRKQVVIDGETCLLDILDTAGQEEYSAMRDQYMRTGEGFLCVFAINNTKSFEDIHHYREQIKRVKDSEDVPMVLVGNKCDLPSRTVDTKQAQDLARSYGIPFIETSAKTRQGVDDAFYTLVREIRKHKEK
Chain of KRAS-G12C (C51S/C80L/C118S) (P01116 with tags, fused parts or gaps isoform P01116-2 G12C/C51S/C80L/C118S): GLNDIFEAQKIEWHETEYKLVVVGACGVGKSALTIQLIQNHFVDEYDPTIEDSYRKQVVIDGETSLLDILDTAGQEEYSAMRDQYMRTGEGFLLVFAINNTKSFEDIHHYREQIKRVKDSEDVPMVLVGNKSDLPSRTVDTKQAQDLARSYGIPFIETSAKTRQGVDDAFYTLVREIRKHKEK
Chain of KRAS-WT (P01116 with tags, fused parts or gaps isoform P01116-2): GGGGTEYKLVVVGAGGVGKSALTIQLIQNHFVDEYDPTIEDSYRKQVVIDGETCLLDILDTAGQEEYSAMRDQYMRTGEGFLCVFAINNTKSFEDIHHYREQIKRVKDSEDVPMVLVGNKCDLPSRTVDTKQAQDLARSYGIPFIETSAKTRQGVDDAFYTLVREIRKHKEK
Chain of KRAS-G12V (P01116 with tags, fused parts or gaps isoform P01116-2 G12V): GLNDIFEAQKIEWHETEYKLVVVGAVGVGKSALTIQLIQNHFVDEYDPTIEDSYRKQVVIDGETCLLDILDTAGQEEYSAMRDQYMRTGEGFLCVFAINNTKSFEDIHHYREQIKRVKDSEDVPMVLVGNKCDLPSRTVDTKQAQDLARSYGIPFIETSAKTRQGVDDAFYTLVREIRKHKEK

CC1CCc2cc3[nH]ncc3c(-c3nccc4c3sc3nc(OC[C@@]56CCCN5C[C@H](F)C6)nc(N5CCOC[C@@](C)(O)C5)c34)c21 (single isomer, unassigned) [Ex-103]
pIC50 [1]: 7.74
pIC50 (MKN-1 cells; [2]): 7.51
pIC50 (HRAS): 5.10
pIC50 (KRAS-G13D): 8.35
pIC50 (KRAS-G12V): 8.06
pIC50 (KRAS-WT): 8.20
pIC50 (SW620 cells; SW-620, KRAS-G12V, 2 hours): 7.70
pIC50 (AsPC-1 cells; KRAS-G12D, 2 hours): 7.58
pIC50 (KRAS-G12D): 8.67

CCC1c2c(cc3[nH]ncc3c2-c2nccc3c2sc2nc(OC[C@@]45CCCN4C/C(=C\F)C5)nc(N4CCOC[C@@](C)(O)C4)c23)CC1(F)F (single isomer, unassigned) [Ex-109]
pIC50 [1]: 7.47
pIC50 (MKN-1 cells; [2]): 7.81
pIC50 (HRAS): 5.09
pIC50 (KRAS-G13D): 8.33
pIC50 (KRAS-G12V): 8.26
pIC50 (KRAS-WT): 8.21
pIC50 (SW620 cells; SW-620, KRAS-G12V, 2 hours): 7.73
pIC50 (AsPC-1 cells; KRAS-G12D, 2 hours): 7.42
pIC50 (KRAS-G12D): 8.36

C#Cc1c(F)ccc2cc3[nH]ncc3c(-c3nccc4c3sc3nc(OC[C@@]56CCCN5C[C@H](F)C6)nc(N5CCOC[C@@](C)(O)C5)c34)c12 [Ex-160, (6S)-4-(8-(5-ethynyl-6-fluoro-1H-benzo[f]indazol-4-yl)-2-(((2R,7aS)-2-fluorotetrahydro-1H-pyrrolizin-7a(5H)-yl)methoxy)pyrido[4′,3′:4,5]thieno[2,3-d]pyrimidin-4-yl)-6-methyl-1,4-oxazepan-6-ol]
pIC50 [1]: 7.27
pIC50 (MKN-1 cells; 2 hours compound incubation): 7.70
pIC50 (HRAS): 5.26
pIC50 (KRAS-G13D): 8.34
pIC50 (KRAS-G12V): 8.28
pIC50 (KRAS-WT): 8.36
pIC50 (SW620 cells; [3]): 8.10
pIC50 (AsPC-1 cells; 2 hours compound incubation): 7.72
pIC50 (KRAS-G12D): 8.61

C#Cc1c(F)sc2cc3[nH]ncc3c(-c3nccc4c3sc3nc(OC[C@@]56CCCN5C[C@H](F)C6)nc(N5CCOC[C@@](C)(O)C5)c34)c12 [Ex-164]
pIC50 [1]: 7.45
pIC50 (MKN-1 cells; 2 hours compound incubation): 7.84
pIC50 (HRAS): 5.72
pIC50 (KRAS-G13D): 8.18
pIC50 (KRAS-G12V): 8.50
pIC50 (KRAS-WT): 8.69
pIC50 (SW620 cells; [3]): 8.56
pIC50 (AsPC-1 cells; 2 hours compound incubation): 8.24
pIC50 (KRAS-G12D): 8.83

CCc1c(F)ccc2cc3[nH]ncc3c(-c3nccc4c3sc3nc(OC[C@@]56CCCN5C[C@H](F)C6)nc(N5CCOC[C@@](C)(O)C5)c34)c12 [Ex-167, (6S)-4-(8-(5-ethyl-6-fluoro-1H-benzo[f]indazol-4-yl)-2-(((2R,7aS)-2-fluorotetrahydro-1H-pyrrolizin-7a(5H)-yl)methoxy)pyrido[4′,3′:4,5]thieno[2,3-d]pyrimidin-4-yl)-6-methyl-1,4-oxazepan-6-ol]
pIC50 [1]: 7.63
pIC50 (MKN-1 cells; 2 hours compound incubation): 7.79
pIC50 (HRAS): 4.99
pIC50 (KRAS-G13D): 8.00
pIC50 (KRAS-G12V): 8.32
pIC50 (KRAS-WT): 8.30
pIC50 (SW620 cells; [3]): 8.09
pIC50 (AsPC-1 cells; 2 hours compound incubation): 7.63
pIC50 (KRAS-G12D): 8.48

CCC1CCc2cc3[nH]ncc3c(-c3nccc4c3sc3nc(OC[C@@]56CCCN5C[C@H](F)C6)nc(N5CCOC[C@@](C)(O)C5)c34)c21 (stereo partly drawn) [Ex-169, (6S)-4-(8-(5-ethyl-1,5,6,7-tetrahydro-cyclopenta[f]indazol-4-yl)-2-(((2R,7aS)-2-fluorotetrahydro-1H-pyrrolizin-7a(5H)-yl)methoxy)pyrido [4′,3′:4,5]thieno[2,3-d]pyrimidin-4-yl)-6-methyl-1,4-oxaze-pan-6-ol]
pIC50 [1]: 7.81
pIC50 (MKN-1 cells; 2 hours compound incubation): 7.67
pIC50 (HRAS): 5.01
pIC50 (KRAS-G13D): 8.15
pIC50 (KRAS-G12V): 7.87
pIC50 (KRAS-WT): 8.11
pIC50 (SW620 cells; [3]): 7.59
pIC50 (AsPC-1 cells; 2 hours compound incubation): 7.51
pIC50 (KRAS-G12D): 8.65

C#Cc1cccc2cc3[nH]ncc3c(-c3nccc4c3sc3nc(OC[C@@]56CCCN5C[C@H](F)C6)nc(N5CCOC[C@@](C)(O)C5)c34)c12 [Ex-171, (6S)-4-(8-(5-ethynyl-1H-benzo[f]indazol-4-yl)-2-(((2R,7aS)-2-fluorotetrahydro-1H-pyrrolizin-7a(5H)-yl)methoxy)pyrido[4′,3′:4,5]thieno[2,3-d]pyrimidin-4-yl)-6-methyl-1,4-oxazepan-6-ol]
pIC50 [1]: 7.41
pIC50 (MKN-1 cells; 2 hours compound incubation): 7.62
pIC50 (HRAS): 5.29
pIC50 (KRAS-G13D): 8.30
pIC50 (KRAS-G12V): 8.29
pIC50 (KRAS-WT): 8.36
pIC50 (SW620 cells; [3]): 7.98
pIC50 (AsPC-1 cells; 2 hours compound incubation): 7.91
pIC50 (KRAS-G12D): 8.78

CN1CCC[C@@]2(COc3nc(N4CCOC[C@@](C)(O)C4)c4c(n3)sc3c(-c5c(C6CC6)c(C(F)(F)F)cc6[nH]ncc56)nccc34)CCC[C@@H]12 [Ex-205, (6S)-4-(8-(5-cyclopropyl-6-(trifluoromethyl)-1H-indazol-4-yl)-2-(((4aS,7aR)-1-methyloctahydro-4aH-cyclopenta[b]pyridin-4a-yl)methoxy)pyrido[4′,3′:4,5]thieno[2,3-d]pyrimidin-4-yl)-6-methyl-1,4-oxazepan-6-ol]
pIC50 [1]: 7.40
pIC50 (MKN-1 cells; 2 hours compound incubation): 7.77
pIC50 (HRAS): 5.29
pIC50 (KRAS-G13D): 7.97
pIC50 (KRAS-G12V): 8.35
pIC50 (KRAS-WT): 8.40
pIC50 (SW620 cells; [3]): 7.82
pIC50 (AsPC-1 cells; 2 hours compound incubation): 7.65
pIC50 (KRAS-G12D): 8.77

[2H]C([2H])([2H])N(C[C@@]1(COc2nc(N3CCOC[C@@](C)(O)C3)c3c(n2)sc2c(-c4c(C5(F)CC5)c(Cl)cc5[nH]ncc45)nccc23)CC1(F)F)C([2H])([2H])[2H] [Ex-231]
pIC50 [1]: 7.69
pIC50 (HRAS): 6.31
pIC50 (KRAS-G13D): 7.82
pIC50 (KRAS-G12V): 8.06
pIC50 (KRAS-WT): 8.07
pIC50 (AsPC-1 cells; 2 hours compound incubation): 7.59
pIC50 (KRAS-G12D): 8.54
